# Laboratory results taken from US20220281931A1, “CHEMICALLY INDUCIBLE POLYPEPTIDE POLYMERIZATION” (Dana-Farber Cancer Institute, Inc., priority 2019, published 2022).
# Residues, ends and D or L forms follow the SMILES beside them. *: point of attachment. Cbz = O=C(OCc1ccccc1)*
# Assays:
# [1] = biological target: T1, eGFPBCL6 stability reporter (Homo sapiens, UniProt P41182); assay: Degradation of BCL6 reporter constructs in HEK293T cells (flow cytometry); type: cell-based; conditions: for effect on BI-3802-induced degradation of eGFPBCL6^FL: HEK293TCas9 cells, 0.5 μM MLN7243, 5 μM MLN4924 or 10 μM MG132 for 3 hours plus 1 μM BI-3802 for 1 hour
# T1 construct: the full length BCL6 (BCL6^FL) was fused in-frame with eGFP; expressed in transfected cells; host or cells: HEK293TCas9 cells, lentiviral transduction (Artichoke vector)
# Description: Lentivirus was packaged in HEK293T cells using TransIT (Mirus) and subsequently used for spin infection.
# HEK293TCas9 cells expressing indicated constructs in “Artichoke” or “Cilantro2” stability reporter vectors (PGK or SFFV Target-eGFP-IRES-mCherry, puromycin resistance) were plated in 96 well plates and treated for indicated times. BCL6-eGFP and mCherry expression were quantified by flow cytometry (CytoFLEX, Beckman or LSR Fortessa flow cytometer BD Biosciences). All degradation assays were done in at least triplicates. Geometric means of eGFP and mCherry fluorescent signals for live and mCherry positive cells were exported using flow cytometry analysis software (FlowJo, BD). Ratios of eGFP to mCherry were normalized to the average of DMSO-treated controls.
# [2] = biological target: T2, BCL6-eGFP fusion construct (Homo sapiens, UniProt P41182); assay: Live cell imaging of BCL6-eGFP foci in HEK293T cells; type: cell-based; conditions: eGFPBCL6^1-250, 10 μM BI-3812 added 75 minutes after 1 μM BI-3802
# T2 construct: expressed in transfected cells; host or cells: HEK293TCas9 cells, lentiviral transduction (Cilantro2 vector)
# Description: 1×10^3 HEK293T cells per cm^2 were seeded in a μ-Slide 8 Well chamber (ibidi) and cultured for 18-24 h under standard growth conditions. Cell culture medium was exchanged to CO2 independent media (Gibco) and imaged with the DeltaVision Ultra High-Resolution Microscope (GE Healthcare, 100×lens, oil refraction index=1.520). The following acquisition parameters were used: Image size […], binning 1×1, GFP exposure time 0.08 sec. and the Neutral Density (% T) filter 32%. To capture foci within all cell volume, around 26μm per cell was imaged every 0.4-0.5 μm. Images were deconvolved (10 cycles, conservative conditions) and projected using maximal intensity by softWoRx® 7.0.0. Images for movies were taken every 10 minutes and combined to a movie by QuickTime.
# [3] = biological target: T3, BCL6^5-129 (Homo sapiens, UniProt P41182); assay: BCL6-BCoR TR-FRET (compound binding assay); conditions: 0.1 μM FITCBCoR polypeptide, 0.1 μM BiotinBCL6^5-129
# T3 construct: mixing 100 nM biotinylated BCL6^5-129, 100 nM N-terminal FITC-labeled BCoR peptide; made in house; host or cells: Trichoplusia ni High Five insect cells, baculovirus
# Description: Competitive titration of BI-3802 or BI-3812 were carried out by mixing 100 nM biotinylated BCL6^5-129, 100 nM N-terminal FITC-labeled BCoR peptide (sequence: […]), and 2 nM terbium-coupled streptavidin in the same assay buffer. After dispensing the assay mixture (15 μL volume), increasing concentrations of compounds were dispensed in a 384-well microplate (Corning, 4514) using a D300e Digital Dispenser (HP) normalized to 1% DMSO. The 520/490 nm ratios were measured as described above and plotted to calculate the KD^APP values using dose-response analysis standard four parameter log-logistic curves using the dr4pl R package.
# [4] = biological target: T4, BCL6^5-360 - SIAH1^SBD (Homo sapiens, UniProt P41182); assay: BCL6-SIAH1 TR-FRET; type: biochemical; conditions: in vitro, increasing compound concentration
# T4 construct: 200 nM BodipyFL-labeled BCL6^5-360 variants; His6 (N); Spy (C); made in house; host or cells: Trichoplusia ni High Five insect cells, baculovirus
# Description: After dispensing the assay mixture (15 μL volume), increasing concentrations of compounds were dispensed in a 384-well microplate (Corning, 4514) using a D300e Digital Dispenser (HP) normalized to 1% DMSO. After excitation of terbium fluorescence at 337 nm, emission at 490 nm (terbium) and 520 nm (BodipyFL) were recorded with a 70 us delay over 600 μs to reduce background fluorescence, and the reaction was followed over 60 cycles of each data point using a PHERAstar FS microplate reader (BMG Labtech). The TR-FRET signal of each data point was extracted by calculating the 520/490 nm ratio. The half-maximal effective concentration (EC50) values were estimated using dose-response analysis standard four parameter log-logistic curves, fitted to the experimental data using […] package. […] After dispensing the assay mixture, increasing concentration of BodipyFL-BCL6^5-360 was added to the SIAH1 mixture in a […] (7.5 μL each, total 15 μL assay volume). The 520/490 nm ratios were measured in as described above and plotted to calculate the KD^APP values using dose-response analysis standard four parameter log-logistic curves using […] package.
# [5] = test system: SuDHL4Cas9 cells; assay: Whole proteome quantification using tandem mass tag mass spectrometry; type: cell-based, human; conditions: SuDHL4 cells, 1 μM compound, 4 hours
# Description: 10×10^6 SuDHL4Cas9 cells were treated with DMSO, 1 μM BI-3802 or 1 μM BI-3812 for 1 h or 4 h in triplicates and cells were harvested by centrifugation. Samples were processed, measured and analyzed as previously described (Donovan, K. A. et al. Thalidomide promotes degradation of SALL4, a transcription factor implicated in Duane Radial Ray syndrome. Ehfe 7, doi:10.7554/eLife.38430 (2018)). Data are available in the PRIDE repository (PXD016185).
smiles,measurement,setting,value
NS(=O)(=O)OC[C@H]1C[C@@H](Nc2ccnc3cc(-c4cccc(SC(F)(F)F)c4)nn23)[C@H](O)[C@@H]1O [MLN7243],effect on BI-3802-induced degradation of eGFPBCL6^FL,[1],attenuated
NS(=O)(=O)OC[C@@H]1C[C@@H](n2ccc3c(N[C@H]4CCc5ccccc54)ncnc32)C[C@@H]1O [MLN4924],effect on BI-3802-induced degradation of eGFPBCL6^FL,[1],not by inhibition of the neddylation pathway with MLN4924
CC(C)C[C@@H](C=O)NC(=O)[C@H](CC(C)C)NC(=O)[C@H](CC(C)C)NC(=O)OCc1ccccc1 [MG132] (Cbz-Leu-Leu-Leu-aldehyde),effect on BI-3802-induced degradation of eGFPBCL6^FL,[1],attenuated
"CNC(=O)COc1cc2cc(Nc3nc(N4CCC(C(=O)N(C)C)CC4)ncc3Cl)cc(OC)c2n(C)c1=O [BI-3812, 1-(5-chloro-4-((8-methoxy-1-methyl-3-(2-(methylamino)-2-oxoethoxy)-2-oxo-1,2-dihydroquinolin-6-yl)amino)pyrimidin-2-yl)-N,N-dimethylpiperidine-4-carboxamide]",reversal of BI-3802-induced foci,[2],fully reversible
same,affinity of compound to BCL6 (BCoR peptide competition),[3],comparable affinity
same,block of BI-3802-induced BCL6 degradation,"[1]; HEK293T cells expressing eGFPBCL6^1-275, simultaneous BI-3802 and excess BI-3812, 24 hours",efficiently blocked BI-3802-induced BCL6 degradation
same,degradation of full-length BCL6 reporter (eGFPBCL6^FL),"[1]; HEK293T cells, 1 μM, 1 hour",did not alter stability of the reporter
same,effect on the BCL6-SIAH1 interaction (TR-FRET),[4],did not influence the BCL6-SIAH1 interaction
same,change in polypeptide abundance (whole proteome),[5],did not alter the abundance of any polypeptide
